Patent US10259810B2, “N-sulfonylated pyrazolo[3,4-b]pyridin-6-carboxamides and method of use” (AbbVie S.à.r.l., priority 2015, dated 2019)

Experiments:
ΔF508-CFTR [1] = biological target: T1, ΔF508-CFTR (Homo sapiens, UniProt P13569, DEL508-508); test: CFTR cell surface levels using HRP-tagged ΔF508-CFTR expressing CFBE cells, intrinsic corrector capacity; format: cell-based; set-up: % Activation: concentration or dose not given beside the values
T1 construct: host or cells: CFBE41o-, doxycycline-inducible
Method in brief: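 Read-out: chemiluminescent HRP activity of ECL4-HRP-tagged ΔF508-CFTR at the cell surface, 15 min substrate in dark. Normalized as 100×(sample−DMSO)/(positive control−DMSO).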

ΔF508-CFTR [2] = biological target: T1, ΔF508-CFTR; test: CFTR cell surface levels using HRP-tagged ΔF508-CFTR expressing CFBE cells, in the presence of a co-corrector; format: cell-based
Method in brief: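 Chemiluminescent read-out of surface HRP (15 min, dark) after PBS washes. Activity is normalized as 100×(sample−DMSO)/(3 μM co-corrector alone−DMSO).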

[3] = HRP-tagged ΔF508-CFTR expressing CFBE41o- cells, compound alone (intrinsic corrector capacity), 20 hours at 33° C.
[4] = HRP-tagged ΔF508-CFTR expressing CFBE41o- cells, compound alone (intrinsic corrector capacity), 20 hours at 33° C., read-out: EC50
[5] = HRP-tagged ΔF508-CFTR CFBE cells, in the presence of 3 μM co-corrector
[6] = HRP-tagged ΔF508-CFTR CFBE cells, in the presence of 3 μM co-corrector, read-out: EC50

T1 sequence (P13569 with tags, fused parts or gaps DEL508-508): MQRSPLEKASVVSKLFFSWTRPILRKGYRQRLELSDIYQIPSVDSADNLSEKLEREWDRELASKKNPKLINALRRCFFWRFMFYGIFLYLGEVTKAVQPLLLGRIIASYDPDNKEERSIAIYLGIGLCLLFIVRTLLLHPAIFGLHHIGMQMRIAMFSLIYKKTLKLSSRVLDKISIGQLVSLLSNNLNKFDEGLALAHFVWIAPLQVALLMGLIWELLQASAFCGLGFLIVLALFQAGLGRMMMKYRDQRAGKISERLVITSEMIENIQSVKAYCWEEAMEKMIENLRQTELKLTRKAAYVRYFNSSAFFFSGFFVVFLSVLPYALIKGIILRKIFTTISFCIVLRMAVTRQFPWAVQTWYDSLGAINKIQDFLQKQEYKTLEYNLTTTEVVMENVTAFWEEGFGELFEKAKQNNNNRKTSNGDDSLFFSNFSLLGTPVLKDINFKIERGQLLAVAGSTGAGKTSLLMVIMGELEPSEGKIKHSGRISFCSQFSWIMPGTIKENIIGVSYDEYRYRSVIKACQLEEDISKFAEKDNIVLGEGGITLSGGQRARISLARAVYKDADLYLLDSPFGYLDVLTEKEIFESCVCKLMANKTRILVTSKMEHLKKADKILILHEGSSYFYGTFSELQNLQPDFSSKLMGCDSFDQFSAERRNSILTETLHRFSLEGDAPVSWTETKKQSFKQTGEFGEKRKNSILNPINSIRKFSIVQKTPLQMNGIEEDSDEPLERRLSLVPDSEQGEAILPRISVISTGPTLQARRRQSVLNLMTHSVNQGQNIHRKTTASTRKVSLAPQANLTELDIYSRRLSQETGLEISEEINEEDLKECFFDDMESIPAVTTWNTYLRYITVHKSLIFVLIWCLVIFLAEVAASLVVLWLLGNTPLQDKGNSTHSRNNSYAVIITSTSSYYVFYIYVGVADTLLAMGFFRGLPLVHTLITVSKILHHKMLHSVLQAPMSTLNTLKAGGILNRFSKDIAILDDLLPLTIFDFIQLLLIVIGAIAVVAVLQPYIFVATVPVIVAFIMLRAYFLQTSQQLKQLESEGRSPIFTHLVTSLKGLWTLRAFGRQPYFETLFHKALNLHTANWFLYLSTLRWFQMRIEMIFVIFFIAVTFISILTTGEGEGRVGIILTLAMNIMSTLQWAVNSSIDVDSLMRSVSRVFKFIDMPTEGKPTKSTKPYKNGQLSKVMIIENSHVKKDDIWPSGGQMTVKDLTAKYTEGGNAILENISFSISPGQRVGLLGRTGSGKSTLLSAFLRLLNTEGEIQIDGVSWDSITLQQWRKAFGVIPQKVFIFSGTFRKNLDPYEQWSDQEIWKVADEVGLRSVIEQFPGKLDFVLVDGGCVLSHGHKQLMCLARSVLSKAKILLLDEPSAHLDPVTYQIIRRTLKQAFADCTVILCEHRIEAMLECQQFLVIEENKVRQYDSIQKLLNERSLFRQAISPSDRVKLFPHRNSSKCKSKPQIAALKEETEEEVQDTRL

Structure (SMILES) | % Activation (ΔF508-CFTR [1]; [3]) | EC50 (ΔF508-CFTR [1]; [4]) | % Activation (ΔF508-CFTR [2]; [5]) | EC50 (ΔF508-CFTR [2]; [6]) | EC50 (ΔF508-CFTR [1]) | EC50 (ΔF508-CFTR [2])
O=C(NS(=O)(=O)C1CCOC1)c1cc(N2CCC(N3CCCCC3)CC2)c2c(C3CCC3)nn(-c3ccc(F)cc3)c2n1 (centres unmarked) [Compound 451, 4-([1,4'-bipiperidin]-1'-yl)-3-cyclobutyl-1-(4-fluorophenyl)-N-(oxolane-3-sulfonyl)-1H-pyrazolo[3,4-b]pyridine-6-carboxamide] | 184.1% | 1700 nM | 391% | 2100 nM |  | 
CCS(=O)(=O)NC(=O)c1cc(-c2cnc(N(C)C)nc2)c2c(C(C)C)nn(-c3cccc(N(C)C)c3)c2n1 [Compound 78, 1-[3-(dimethylamino)phenyl]-4-[2-(dimethylamino)pyrimidin-5-yl]-N-(ethanesulfonyl)-3-(propan-2-yl)-1H-pyrazolo[3,4-b]pyridine-6-carboxamide] | 333.2% | 1880 nM | 520.7% | 660 nM |  | 
CCS(=O)(=O)NC(=O)c1cc(-c2ccc(N3CCOCC3)cc2)c2c(C(C)C)nn(C3CCCOC3)c2n1 (centres unmarked) [Compound 40, N-(ethanesulfonyl)-4-[4-(morpholin-4-yl)phenyl]-1-(oxan-3-yl)-3-(propan-2-yl)-1H-pyrazolo[3,4-b]pyridine-6-carboxamide] | 147.1% | 451 nM | 373.43% | 423 nM |  | 
CC(C)c1nn(-c2ccnc(N3CCOCC3)c2)c2nc(C(=O)NS(C)(=O)=O)cc(OCC3CCOCC3)c12 [Compound 336, N-(methanesulfonyl)-1-[2-(morpholin-4-yl)pyridin-4-yl]-4-[(oxan-4-yl)methoxy]-3-(propan-2-yl)-1H-pyrazolo[3,4-b]pyridine-6-carboxamide] | 107.2% | 420 nM | 232.42% | 282 nM |  | 
COC(=O)N1CCN(C2CCN(c3cc(C(=O)NS(=O)(=O)N(C)C)nc4c3c(C3CCC3)nn4-c3ccc(F)cc3)CC2)CC1 [Compound 492, methyl 4-(1-{3-cyclobutyl-6-[(dimethylsulfamoyl)carbamoyl]-1-(4-fluorophenyl)-1H-pyrazolo[3,4-b]pyridin-4-yl}piperidin-4-yl)piperazine-1-carboxylate] | 311% | 79.9 nM | 483.4% | 43.9 nM |  | 
COCCN(C)c1ccc(-c2cc(C(=O)NS(C)(=O)=O)nc3c2c(C(C)C)nn3-c2cccc(N3CCCC3)c2)cc1 [Compound 109, N-(methanesulfonyl)-4-{4-[(2-methoxyethyl)(methyl)amino]phenyl}-3-(propan-2-yl)-1-[3-(pyrrolidin-1-yl)phenyl]-1H-pyrazolo[3,4-b]pyridine-6-carboxamide] | 381.05% | 613 nM | 571.3% | 634 nM |  | 
CC(C)Oc1nn(C2CCCCC2)c2nc(C(=O)NS(C)(=O)=O)cc(-c3ccc(C4(C#N)CCN(C)CC4)cc3)c12 [Compound 639, 4-[4-(4-cyano-1-methylpiperidin-4-yl)phenyl]-1-cyclohexyl-N-(methanesulfonyl)-3-[(propan-2-yl)oxy]-1H-pyrazolo[3,4-b]pyridine-6-carboxamide] |  |  |  |  | 132 nM | 74.5 nM
COC1(CN2CCS(=O)(=O)CC2)CCN(c2cc(C(=O)NS(C)(=O)=O)nc3c2c(C2CCC2)nn3-c2ccccc2)CC1 [Compound 255, 3-cyclobutyl-4-{4-[(1,1-dioxo-1λ^6,4-thiazinan-4-yl)methyl]-4-methoxypiperidin-1-yl}-N-(methanesulfonyl)-1-phenyl-1H-pyrazolo[3,4-b]pyridine-6-carboxamide] | 122.3% | 1880 nM | 365.8% | 3330 nM |  | 
COCCN(C)c1cccc(-n2nc(C(C)C)c3c(-c4ccc(N5CCOCC5)cc4)cc(C(=O)NS(C)(=O)=O)nc32)c1 [Compound 76, N-(methanesulfonyl)-1-{3-[(2-methoxyethyl)(methyl)amino]phenyl}-4-[4-(morpholin-4-yl)phenyl]-3-(propan-2-yl)-1H-pyrazolo[3,4-b]pyridine-6-carboxamide] | 430.87% | 528 nM | 581.37% | 633 nM |  | 
COCC1CCN(c2cc(C(=O)NS(=O)(=O)c3c(C)noc3C)nc3c2c(C2CCC2)nn3-c2ccccc2)CC1 [Compound 287, 3-cyclobutyl-N-(3,5-dimethyl-1,2-oxazole-4-sulfonyl)-4-[4-(methoxymethyl)piperidin-1-yl]-1-phenyl-1H-pyrazolo[3,4-b]pyridine-6-carboxamide] | 204.9% | 183 nM | 450.9% | 128 nM |  | 
CC(C)c1nn(-c2cccc(N(C)C)n2)c2nc(C(=O)NS(C)(=O)=O)cc(-c3ccc(N4CCOCC4)cc3)c12 [Compound 125, 1-[6-(dimethylamino)pyridin-2-yl]-N-(methanesulfonyl)-4-[4-(morpholin-4-yl)phenyl]-3-(propan-2-yl)-1H-pyrazolo[3,4-b]pyridine-6-carboxamide] | 369.87% | 988 nM | 520.33% | 463 nM |  | 
CS(=O)(=O)NC(=O)c1cc(N2CCC(COCc3ccccc3)CC2)c2c(C3CCC3)nn(-c3ccccc3)c2n1 [Compound 213, 4-{4-[(benzyloxy)methyl]piperidin-1-yl}-3-cyclobutyl-N-(methanesulfonyl)-1-phenyl-1H-pyrazolo[3,4-b]pyridine-6-carboxamide] | 267.5% | 546 nM | 469.6% | 337 nM |  | 
CCS(=O)(=O)NC(=O)c1cc(-c2cnc(N3CCOCC3)nc2)c2c(C(C)C)nn(-c3cccc(N(C)C)c3)c2n1 [Compound 62, 1-[3-(dimethylamino)phenyl]-N-(ethanesulfonyl)-4-[2-(morpholin-4-yl)pyrimidin-5-yl]-3-(propan-2-yl)-1H-pyrazolo[3,4-b]pyridine-6-carboxamide] | 350.85% | 596 nM | 631.2% | 532 nM |  | 
COCC1CCN(c2cc(C(=O)NS(C)(=O)=O)nc3c2c(C(C)C)nn3CC(C)C)CC1 [Compound 264, N-(methanesulfonyl)-4-[4-(methoxymethyl)piperidin-1-yl]-1-(2-methylpropyl)-3-(propan-2-yl)-1H-pyrazolo[3,4-b]pyridine-6-carboxamide] | 242.5% | 969 nM | 478.6% | 3330 nM |  | 
CCS(=O)(=O)NC(=O)c1cc(-c2cnc(N3CCOCC3)nc2)c2c(C(C)C)nn(-c3ccccc3)c2n1 [Compound 112, N-(ethanesulfonyl)-4-[2-(morpholin-4-yl)pyrimidin-5-yl]-1-phenyl-3-(propan-2-yl)-1H-pyrazolo[3,4-b]pyridine-6-carboxamide] | 254.85% | 699 nM | 472.8% | 884 nM |  | 
CC(C)c1nn(-c2ccc(F)cc2)c2nc(C(=O)NS(C)(=O)=O)cc(N3CCN(C4CCC4)CC3)c12 [Compound 280, 4-(4-cyclobutylpiperazin-1-yl)-1-(4-fluorophenyl)-N-(methanesulfonyl)-3-(propan-2-yl)-1H-pyrazolo[3,4-b]pyridine-6-carboxamide] | 121.9% | 1010 nM | 323.37% | 1010 nM |  | 
COCC1CCN(c2cc(C(=O)NS(=O)(=O)C3CC3)nc3c2c(C2CCC2)nn3-c2ccccc2)CC1 [Compound 401, 3-cyclobutyl-N-(cyclopropanesulfonyl)-4-[4-(methoxymethyl)piperidin-1-yl]-1-phenyl-1H-pyrazolo[3,4-b]pyridine-6-carboxamide] | 400.8% | 104 nM | 595.1% | 62 nM |  | 
CN(C)S(=O)(=O)NC(=O)c1cc(OCC2CCN(C3CCOCC3)CC2)c2c(C3CCC3)nn(-c3ccc(F)cc3)c2n1 [Compound 619, 3-cyclobutyl-N-(dimethylsulfamoyl)-1-(4-fluorophenyl)-4-{[1-(oxan-4-yl)piperidin-4-yl]methoxy}-1H-pyrazolo[3,4-b]pyridine-6-carboxamide] | 102.8% | 680 nM | 277.25% | 375 nM |  | 
CC(C)c1nn(-c2cccc(C(F)(F)F)c2)c2nc(C(=O)NS(C)(=O)=O)cc(-c3ccc(N4CCC(C#N)CC4)cc3)c12 [Compound 135, 4-[4-(4-cyanopiperidin-1-yl)phenyl]-N-(methanesulfonyl)-3-(propan-2-yl)-1-[3-(trifluoromethyl)phenyl]-1H-pyrazolo[3,4-b]pyridine-6-carboxamide] | 299.63% | 696 nM | 512.9% | 373 nM |  | 
CCS(=O)(=O)N(C)C(=O)c1cc(N2CCC(N3CCOCC3)CC2)c2c(C3CCC3)nn(-c3ccccc3)c2n1 [Compound 658, 3-cyclobutyl-N-(ethanesulfonyl)-N-methyl-4-[4-(morpholin-4-yl)piperidin-1-yl]-1-phenyl-1H-pyrazolo[3,4-b]pyridine-6-carboxamide] | 99.025% |  | 270.6% |  |  | 
COCCS(=O)(=O)NC(=O)c1cc(N2CCC(N3CCOCC3)CC2)c2c(C3CCC3)nn(-c3ccccc3)c2n1 [Compound 438, 3-cyclobutyl-N-(2-methoxyethanesulfonyl)-4-[4-(morpholin-4-yl)piperidin-1-yl]-1-phenyl-1H-pyrazolo[3,4-b]pyridine-6-carboxamide] | 337% | 392 nM | 541.5% | 380 nM |  | 
